# Experimental data taken from US8080563B2, “Bicyclic heteroaryl inhibitors of PDE4” (Kalypsys, priority 2006, dated 2011).
# Key:
# PDE4B = target: T1, PDE4B (Homo sapiens, UniProt Q07343); assay: Coupled PDE/AK bioluminescent assay of PDE inhibition; format: biochemical; settings: PDE4B catalytic domain
# T1 construct: hex-histidine (His6) (N); made in house
# Excerpt: Phosphodiesterases regulate the activity of the second messenger cyclic adenosine monophosphate (cAMP) by hydrolyzing cAMP to adenosine monophosphate (AMP). We developed a novel coupled PDE/AK bioluminescent high-throughput assay to measure the activity of phosphodiesterases. In the PDE/AK assay, the AMP produced from the hydrolysis of cAMP by phosphodiesterase is converted to adenosine diphosphate (ADP) by the phosphotransferase activity of adenylate kinase (also known as ADK or myokinase). Adenylate kinase will catalyze the conversion of 1 mole of AMP and 1 mole of ATP into 2 moles of ADP. Thus the conversion of AMP to ADP will result in the subsequent loss of ATP. The decrease in ATP concentration can be monitored as light output using luciferase in a reaction that requires ATP to produce light. The PDE/AK assay uses luciferase, which catalyzes the production of light from ATP present in the reaction mix. The amount of emitted light is inversely proportional to the level of AMP present in the reaction. Test compounds are incubated with the phosphodiesterases and phosphodiesterase inhibitors will decrease the rate of cAMP hydrolysis and decrease the subsequent production of AMP. Thus phosphodiesterase inhibitors will decrease the conversion of ATP to ADP and result in the greatest emission of light.
# Compounds may be screened for functional potency in in vitro biochemical assays for their ability to inhibit the activity of phosphodiesterase (PDE) enzymes. A novel coupled PDE/AK assay was utilized to measure the inhibitory activity of compounds on PDE isoforms. The catalytic domain of PDE4B was fused to an amino-terminus hex-histidine affinity tag and purified. PDE4B enzyme was incubated with compounds for 10 minutes. Cyclic AMP substrate, ATP and adenylate kinase were then added to the PDE enzyme mix and incubated for 45 minutes at room temperature. A commercial ATP detection assay, Perkin Elmer's easyLite ATP detection reagent, was then added to measure the relative amount of ATP present in the reaction. After […], the luminescent signal was quantitated with either the Perkin Elmer Viewlux or Molecular Devices Acquest or Analyst. Roflumilast and Rolipram are the positive controls used in the assay.
# [1] = tested on: Lacrimal Gland Inflammation-Induced Dry Eye in Rabbits; assay: Lacrimal gland inflammation-induced dry eye in rabbits (corneal staining, tear breakup time); format: in vivo; settings: topical ocular BID; for Activity at Percent Concentration Tested 1 × 10^−2: 1 × 10^−2 percent concentration; for Activity at Percent Concentration Tested 1 × 10^−4: 1 × 10^−4 percent concentration; for Activity at Percent Concentration Tested 1 × 10^−6: 1 × 10^−6 percent concentration
# Excerpt: A more detailed description of the assay used herein may be found in Naglehout, T J et al. 2005, “Preservation of Tear Film Integrity and Inhibition of Corneal Injury by Dexamethasone in a Rabbit Model of Lacrimal Gland Inflammation-Induced Dry Eye,” J. Ocular Pharm. Ther., 21:2. 139-148, the disclosure of which is hereby incorporated by reference as if written herein in its entirety.
# Rabbits (n=4/group) were randomized into treatment groups and dosed topically BID with maxidex vehicle or test drug beginning one day prior to initiation of dry eye. Each rabbit received bilateral lacrimal gland injections of saline or ConA (300 μg/30 μl) and topical ocular dosing was continued BID throughout the study.
# Desiccation was initiated 1-2 hours following lacrimal gland injection by placing conscious rabbits in the environmental chamber (10-15% humidity/72° F.). Following 72 consecutive hours of exposure to this dry environment, the animals were anesthetized and sutures were placed in each upper and lower eyelid and lifted to form a corneal/conjunctival cup. Methylene blue dye (1 mL, 1% in dH2O) was added to the cup for three minutes and the excess removed by washing with 200 mL BSS®. The contralateral eye was then stained using the same procedure. Rabbits were euthanized immediately following the staining procedure and the eyes were excised. The corneas were isolated with a trephine and the 9.5-mm punch of the cornea was placed in 2 mL acetone/saturated sodium sulfate (7:3, vol./vol.). Absorbance of the extracted dye was determined at 660 nm.
# TBUT was quantified in a separate group of treated animals. TBUT was determined by instilling 5 μL sodium fluorescein into the cul de sac and manually blinking the lids to distribute the fluorescein within the tear film. Under slit lamp observation, the eye was held open and the time whereby one or more black spots or streaks appeared in the precorneal tear film was recorded. The rabbits were euthanized 3 days following ConA injection.
# T1 sequence (Q07343 330-659 limits assumed, species assumed): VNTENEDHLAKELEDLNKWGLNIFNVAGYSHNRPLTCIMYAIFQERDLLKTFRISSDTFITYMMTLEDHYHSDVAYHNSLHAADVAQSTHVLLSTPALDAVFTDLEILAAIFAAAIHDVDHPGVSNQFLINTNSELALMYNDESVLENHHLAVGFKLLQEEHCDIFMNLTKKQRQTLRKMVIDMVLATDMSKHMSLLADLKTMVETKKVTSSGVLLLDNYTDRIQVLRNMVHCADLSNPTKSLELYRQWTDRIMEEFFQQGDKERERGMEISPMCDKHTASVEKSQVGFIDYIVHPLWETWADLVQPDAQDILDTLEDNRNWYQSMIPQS
Compound,IC50 (PDE4B) [nM],further results
"COc1ccc2c(Nc3c(Cl)cncc3Cl)cc(=O)[nH]c2c1OC1CCCC1 [Example 1, 8-(Cyclopentyloxy)-4-(3,5-dichloropyridin-4-ylamino)-7-methoxyquinolin-2(1H)-one]",≤ 1000,Activity at Percent Concentration Tested 1 ([1]; 1 percent concentration): Inactive; Activity at Percent Concentration Tested 1 × 10^−1 ([1]; 1 × 10^−1 percent concentration): Inactive; Activity at Percent Concentration Tested 1 × 10^−2 [1]: Inactive
"COc1ccc2c(Oc3c(Cl)cncc3Cl)cc(=O)[nH]c2c1OC1CCCC1 [Example 2, 8-(Cyclopentyloxy)-4-(3,5-dichloropyridin-4-yloxy)-7-methoxyquinolin-2(1H)-one]",≤ 1000,
"COc1ccc2c(Nc3c(Cl)cncc3Cl)cc(=O)[nH]c2c1OCC1CC1 [Example 3, 8-(Cyclopropylmethoxy)-4-(3,5-dichloropyridin-4-ylamino)-7-methoxyquinolin-2(1H)-one]",≤ 1000,
"COc1ccc2c(Nc3c(Cl)cncc3Cl)cc(=O)n(C)c2c1OC1CCCC1 [Example 4, 8-(Cyclopentyloxy)-4-(3,5-dichloropyridin-4-ylamino)-7-methoxy-1-methylquinolin-2(1H)-one]",≤ 1000,
"COc1ccc2c(Nc3c(C)cncc3C)cc(=O)[nH]c2c1OC1CCCC1 [Example 5, 8-(Cyclopentyloxy)-4-(3,5-dimethylpyridin-4-ylamino)-7-methoxyquinolin-2(1H)-one]",≤ 1000,Activity at Percent Concentration Tested 1 × 10^−2 [1]: Inactive; Activity at Percent Concentration Tested 1 × 10^−4 [1]: Inactive; Activity at Percent Concentration Tested 1 × 10^−6 [1]: Inactive
"COc1ccc2c(Nc3c(Cl)cncc3Cl)c(Br)c(=O)n(Br)c2c1OC1CCCC1 [Example 6, 1,3-Dibromo-8-(cyclopentyloxy)-4-(3,5-dichloropyridin-4-ylamino)-7-methoxyquinolin-2(1H)-one]",≤ 1000,
"COc1ccc2c(Nc3c(C)cncc3C)cc(=O)[nH]c2c1OCC(C)C [Example 12, 4-(3,5-Dimethylpyridin-4-ylamino)-8-isobutoxy-7-methoxyquinolin-2(1H)-one]",≤ 1000,
"COc1ccc2c(Nc3c(Cl)cncc3Cl)cc(=O)[nH]c2c1OCCCCN(C)C [Example 13, 4-(3,5-Dichloropyridin-4-ylamino)-8-(4-(dimethylamino)butoxy) -7-methoxyquinolin-2(1H)-one]",≤ 1000,

# Further lines, with some results ahead:
IC50 (PDE4B) [nM],Compound,further results
≤ 1000,"COc1ccc2c(Nc3c(Cl)cncc3Cl)c(Br)c(=O)[nH]c2c1OC1CCCC1 [Example 7, 3-Bromo-8-(cyclopentyloxy)-4-(3,5-dichloropyridin-4-ylamino)-7-methoxyquinolin-2(1H)-one]",
≤ 1000,"COc1ccc2c(Nc3c(C)cncc3C)cc(=O)[nH]c2c1OCC1CC1 [Example 8, 8-(Cyclopropylmethoxy)-4-(3,5-dimethylpyridin-4-ylamino)-7-methoxyquinolin-2(1H)-one]",Activity at Percent Concentration Tested 1 × 10^−2 [1]: Inactive; Activity at Percent Concentration Tested 1 × 10^−4 [1]: Inactive; Activity at Percent Concentration Tested 1 × 10^−6 [1]: Inactive
≤ 1000,"COc1ccc2c(Nc3c(Cl)cncc3Cl)cc(=O)n(CCO)c2c1OC1CCCC1 [Example 9, 8-(Cyclopentyloxy)-4-(3,5-dichloropyridin-4-ylamino)-1-(2-hydroxyethyl)-7-methoxyquinolin-2(1H)-one]",
≤ 1000,"COc1ccc2c(Nc3c(Cl)cncc3Cl)cc(=O)n(CCN(C)C)c2c1OC1CCCC1 [Example 10, 8-(Cyclopentyloxy)-4-(3,5-dichloropyridin-4-ylamino)-1-(2-(dimethylamino)ethyl)-7-methoxyquinolin-2(1H)-one]",
≤ 1000,"COc1ccc2c(Nc3c(Cl)cncc3Cl)cc(=O)[nH]c2c1OCCCCCC(=O)O [Example 11, 6-(4-(3,5-Dichloropyridin-4-ylamino)-7-methoxy-2-oxo-1,2-dihydroquinolin-8-yloxy)hexanoic acid]",
≤ 1000,"COc1ccc2c(Nc3c(Cl)cncc3Cl)cc(=O)[nH]c2c1OCCCCCN(C)C [Example 14, 4-(3,5-Dichloropyridin-4-ylamino)-8-(5-(dimethylamino)pentyloxy)-7-methoxyquinolin-2(1H)-one]",
